Consider three compounds from patent US20090257999A1, “Method of preventing contrast-induced nephropathy” (Inotek Pharmaceuticals Corporation, priority 2007, published 2009).

For series [1], the system named is diabetic rats. Description: CIN model, Example 5: INO-1001 alone and with NAC in diabetic rats. The conditions noted are these: diabetic rats + Iomeprol, NAC 30 mg/kg i.v., INO-1001 10 mg/kg ip, or both, at −30 min. It is filed as in vivo, rat. Here is the method: (§1) Male Wistar rats (150-200 g; Harlan Nossanr) were housed in a controlled environment and provided with standard rodent chow and water. Diabetes was induced after 12 h of fasting. The animals received a single 60 mg/kg intravenous (i.v.) injection of streptozotocin (Sigma, St. Louis, Mo.) in 10 mM sodium citrate buffer, pH 4.5 (see figure). Control non-diabetic animals were fasted and received citrate buffer alone. After 24 hours, animals with blood glucose levels greater than 250 mg/dl were considered diabetic. The diabetic state was confirmed by evaluating the blood glucose levels. Ten days following the induction of diabetes rats were anesthetized with 90 mg/kg ketamine i.m. and 10 mg/kg xylazine i.m. and were treated with the contrast agent iomeprol (10 mL/kg injected via the lateral tail vein) or with 0.9% normal saline. The contrast agent used was the low osmolar non-ionic monomer iomeprol (Iomeron, 400 mgI mL-1; Bracco SpA, Milan, Italy) with an osmolality of 726±34 mosmol/kg H2O.
GROUP 1: Diabetic rats only+Placebo (i.v.). GROUP 2: Diabetic rats+Iomeprol+Placebo (i.v.) given at −30 min. GROUP 3: Diabetic rats+Iomeprol+NAC (30 mg/kg, i.v.) given at −30 min. GROUP 4: Diabetic rats+Iomeprol+INO-1001 (10 mg/kg, ip) given at −30 min. GROUP 5: Diabetic rats+Iomeprol+NAC (30 mg/kg, i.v.)+INO-1001 (10 mg/kg, ip) given at −30 min.
(§2) Blood samples were collected via the lateral tail vein into S1/3 tubes containing serum gel at 24 hours. The samples were centrifuged (6000 r.p.m. for 3 min) to separate plasma. All plasma samples were analyzed for biochemical parameters within 24 hours after collection. Plasma and urine concentrations of creatinine were measured as indicators of impaired glomerular function. Creatinine clearance was calculated using the following formula (=UV/P), where U refers to Creatinine concentration in urine, V to urine volume/min and P to serum creatinine. Plasma and urine concentrations of NGAL (neutrophil gelatinase associated lipocalin) levels and urine αGST (alpha glutathione S-transferase) and NGAL levels were evaluated.
Protein concentration in urine was determined by Bio-Rad DC Protein Assay (BioRad, Richmond Calif.). The Bio-Rad DC protein assay is a colorimetric assay for protein concentration. The reaction is similar to the well-documented Lowry assay (Lowry et al., Protein measurement with the Folin phenol reagent, J Biol Chem 193, 265-275 (1951). The Bio-Rad DC protein assay requires only a single 15-minute incubation, and absorbance is stable for a least 2 hours. The amount of protein is expressed in mg/ml.

Series [2] deals with diabetic rats. Put plainly: CIN model, Example 3: M40403 alone and with NAC in diabetic rats. The conditions noted are these: diabetic rats + Iomeprol, 24 hours; M40403 0.5 mg/kg i.v. alone or + NAC 3 mg/kg i.v., at −30 min. It is filed as in vivo, rat. Here is the method: as §1, with “12 hours” for “12 h”
as §2, with “gel at 0 and 24 hours.” for “gel at 24 hours.”, “of NGAL levels were” for “of NGAL (neutrophil gelatinase associated lipocalin) levels and urine αGST (alpha glutathione S-transferase) and NGAL levels were”

The conditions of series [3]: Iomeron, 400 mgI mL-1; cited from earlier work.

SMILES strings stand for the structures.

Regarding `O=c1[nH]cnc2c1ncn2[C@@H]1O[C@H](CO)[C@@H](O)[C@H]1O` [INO-1001], the plasma creatinine entry in the series on diabetic rats [1] (24 h) is on record as “significant reductions”. In addition, in the series with diabetic rats [1] (24 hours), the “plasma NGAL concentration” value was “significant reductions”, the “total protein concentration in the urine” value was “significant reductions”, the “urine NGAL concentration” value is reported as “significant reductions” and the “urine αGST” value is listed as “significant reductions”.

On to `[Cl-].[Cl-].[Mn+2].c1cc2nc(c1)CN[C@@H]1CCCC[C@H]1NCCN[C@@H]1CCCC[C@H]1NC2` [Metalloporphyrin M40403], for which, in the series with diabetic rats [2], the “plasma NGAL concentration” value is on record as “significant reduction”, the “plasma Na+” value is “significant reductions”, the “plasma concentrations of K+” value is “significant increase” and the plasma creatinine result is listed as “significant reductions”. In addition, in the series with diabetic rats [2], the “total protein concentrations in the urine” value is on record as “significantly reduced” and the “urine NGAL concentration” value is listed as “significant reduction”.

On to `CN(C(=O)CO)c1c(I)c(C(=O)NCC(O)CO)c(I)c(C(=O)NCC(O)CO)c1I` (stereo not drawn) [iomeprol], for which the osmolality in series [3] is reported as 726±34 mosmol/kg H2O.
